Reference: publication PMC4194318, “Genetic and pharmacological evidence that G2019S LRRK2 confers a hyperkinetic phenotype, resistant to motor decline associated with aging” (Neurobiology of Disease, 2014)
pIC50: −log10 of the molar value.

Assays:
[1] = target: T1, LRRK2 (leucine-rich repeat kinase 2) (Mus musculus, UniProt Q5S006, G2019S); assay: ex vivo Western blot of LRRK2 pSer935, […] min after […] mg/kg i.p.; assay type: cell-based
T1 construct: endogenous LRRK2 in striatum of G2019S knock-in mice
T1 sequence (Q5S006 whole entry G2019S): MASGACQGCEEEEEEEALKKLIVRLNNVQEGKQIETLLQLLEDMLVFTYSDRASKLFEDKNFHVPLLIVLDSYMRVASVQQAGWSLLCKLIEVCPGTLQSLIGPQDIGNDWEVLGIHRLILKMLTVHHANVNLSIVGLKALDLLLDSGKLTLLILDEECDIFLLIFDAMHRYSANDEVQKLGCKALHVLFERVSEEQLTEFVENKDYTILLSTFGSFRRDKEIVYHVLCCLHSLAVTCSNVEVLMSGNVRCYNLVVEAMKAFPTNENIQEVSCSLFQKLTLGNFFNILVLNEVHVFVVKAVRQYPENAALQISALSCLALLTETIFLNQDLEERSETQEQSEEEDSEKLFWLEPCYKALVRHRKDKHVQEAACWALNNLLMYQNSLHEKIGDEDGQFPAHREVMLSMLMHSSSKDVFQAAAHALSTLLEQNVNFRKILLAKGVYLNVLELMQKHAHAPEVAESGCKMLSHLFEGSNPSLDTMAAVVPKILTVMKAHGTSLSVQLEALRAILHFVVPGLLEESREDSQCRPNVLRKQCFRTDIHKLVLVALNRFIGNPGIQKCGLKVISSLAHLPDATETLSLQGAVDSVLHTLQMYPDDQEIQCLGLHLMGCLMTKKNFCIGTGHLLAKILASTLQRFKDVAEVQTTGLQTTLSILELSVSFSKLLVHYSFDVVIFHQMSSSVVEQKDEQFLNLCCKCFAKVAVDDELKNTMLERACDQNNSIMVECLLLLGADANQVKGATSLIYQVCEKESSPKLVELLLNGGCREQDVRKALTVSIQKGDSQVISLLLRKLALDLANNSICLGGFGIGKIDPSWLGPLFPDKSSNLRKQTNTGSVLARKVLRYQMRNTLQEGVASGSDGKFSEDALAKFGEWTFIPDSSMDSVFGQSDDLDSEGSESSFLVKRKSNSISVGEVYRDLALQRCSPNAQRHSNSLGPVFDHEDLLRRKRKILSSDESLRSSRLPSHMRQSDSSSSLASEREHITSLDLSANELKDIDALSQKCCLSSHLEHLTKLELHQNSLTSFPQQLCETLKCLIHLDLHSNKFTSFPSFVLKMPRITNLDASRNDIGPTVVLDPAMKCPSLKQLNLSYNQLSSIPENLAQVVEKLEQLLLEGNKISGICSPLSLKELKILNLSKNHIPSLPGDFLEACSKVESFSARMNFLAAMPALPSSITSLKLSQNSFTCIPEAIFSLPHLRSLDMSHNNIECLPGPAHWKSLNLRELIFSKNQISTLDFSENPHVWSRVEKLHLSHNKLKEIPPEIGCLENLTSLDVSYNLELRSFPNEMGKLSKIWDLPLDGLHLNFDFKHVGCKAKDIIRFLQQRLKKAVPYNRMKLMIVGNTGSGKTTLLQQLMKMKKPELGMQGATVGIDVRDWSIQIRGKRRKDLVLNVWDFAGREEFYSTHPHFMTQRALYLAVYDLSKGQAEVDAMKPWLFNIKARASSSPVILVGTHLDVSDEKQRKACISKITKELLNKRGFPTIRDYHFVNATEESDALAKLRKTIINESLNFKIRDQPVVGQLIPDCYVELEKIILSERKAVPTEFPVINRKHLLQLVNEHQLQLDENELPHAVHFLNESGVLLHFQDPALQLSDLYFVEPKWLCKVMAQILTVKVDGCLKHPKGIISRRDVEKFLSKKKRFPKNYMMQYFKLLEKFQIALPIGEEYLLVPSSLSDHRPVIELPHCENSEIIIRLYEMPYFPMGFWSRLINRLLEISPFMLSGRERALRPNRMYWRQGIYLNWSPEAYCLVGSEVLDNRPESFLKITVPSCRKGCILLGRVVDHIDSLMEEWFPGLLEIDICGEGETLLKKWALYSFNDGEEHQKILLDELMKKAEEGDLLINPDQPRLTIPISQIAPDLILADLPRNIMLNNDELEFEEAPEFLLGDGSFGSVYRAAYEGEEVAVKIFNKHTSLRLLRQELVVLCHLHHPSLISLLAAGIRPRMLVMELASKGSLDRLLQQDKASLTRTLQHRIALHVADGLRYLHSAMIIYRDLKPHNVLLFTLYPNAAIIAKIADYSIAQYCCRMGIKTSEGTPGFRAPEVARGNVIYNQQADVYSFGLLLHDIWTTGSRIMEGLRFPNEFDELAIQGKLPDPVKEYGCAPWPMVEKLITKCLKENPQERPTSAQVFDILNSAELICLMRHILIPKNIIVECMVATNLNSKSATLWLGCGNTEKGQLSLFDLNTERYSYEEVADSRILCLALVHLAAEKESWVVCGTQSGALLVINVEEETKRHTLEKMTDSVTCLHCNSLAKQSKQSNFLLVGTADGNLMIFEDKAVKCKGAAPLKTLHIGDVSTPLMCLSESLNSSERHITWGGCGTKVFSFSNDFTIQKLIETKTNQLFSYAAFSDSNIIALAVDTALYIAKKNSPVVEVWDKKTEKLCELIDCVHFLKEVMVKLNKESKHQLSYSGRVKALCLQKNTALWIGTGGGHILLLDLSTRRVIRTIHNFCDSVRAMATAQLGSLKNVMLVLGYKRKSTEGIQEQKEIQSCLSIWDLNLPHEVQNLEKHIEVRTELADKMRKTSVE

[2] = target: T2, LRRK2 (leucine-rich repeat kinase 2) (Mus musculus, UniProt Q5S006); assay: Western blot of LRRK2 pSer935 in NIH3T3 cells, […] min; also ex vivo mouse striatum and cortex; assay type: cell-based
T2 construct: endogenous LRRK2 in NIH3T3 cells
T2 sequence (Q5S006 whole entry): as the sequence (Q5S006 whole entry G2019S) above, with S2019G counted along it

Structure (SMILES)	ex vivo Western blot of LRRK2 pSer935, 20 min after 1 mg/kg i.p. [1]	pIC50 [2]
Cc1cncc2cccc(S(=O)(=O)N3CCCNC[C@@H]3C)c12 [H-1152, (S)-(+)-2-methyl-1-[(4-methyl-5-isoquinoline)sulfonyl]-homopiperazine]	H-1152 attenuated endogenous LRRK2 phosphorylation at Ser935 in striatum but not cerebral cortex of G2019S knock-in (G2019S KI) mice	–
CC(=O)N1CCc2[nH]c(/C=C3\C(=O)Nc4ccc(OC(C)C)cc43)cc2C1 [Nov-LRRK2-11]	–	9.42
